Test systems include HOP-92 NSCLC; T-47D breast; TK-10 renal; UO-31 renal; OVCAR-8 ovarian; A549 NSCLC; SK-MEL-5 melanoma; PC-3 prostate; U251 CNS; BT-549 breast.
What all share (assay): NCI tumour cell line growth inhibition, 48 h

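Five compound concentrations were applied to cells in 96-well plates for 48 hours; endpoints were derived by simple linear interpolation of the resulting dose-response curve. TGI is the concentration that stops growth completely.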

For `CCCCCCc1cc2cc(C(=O)Nc3cccc(C(F)(F)F)c3)c(=N)oc2cc1O`, the TGI with HOP-92 NSCLC was 2.14 µM; with T-47D breast, 1.04 µM; in the assay on TK-10 renal it was 46.6 µM; in the assay on UO-31 renal, above 29.2 µM; in the assay on OVCAR-8 ovarian it was 3.72 µM; with A549 NSCLC, 10.9 µM. For the same compound, the TGI with SK-MEL-5 melanoma turned out to be 2.45 µM; in the assay on PC-3 prostate, 15.1 µM; in the assay on U251 CNS, 3.5 µM; in the assay with BT-549 breast it was 6.1 µM.

Consider `CCOC(=O)C1C(=O)C=C(c2cc(C)ccc2O)CC1c1cccc(Br)c1` (stereo not given), for which the TGI worked out at 29.8 µM with HOP-92 NSCLC; 72 µM in the assay with T-47D breast; 42.1 µM with TK-10 renal; 56.6 µM in the assay on UO-31 renal; 92.7 µM in the assay on OVCAR-8 ovarian; 51.2 µM in the assay with A549 NSCLC. Moreover, the TGI with SK-MEL-5 melanoma worked out at 28.5 µM; with PC-3 prostate, 40.4 µM; in the assay with U251 CNS it was 32 µM; in the assay with BT-549 breast, 72.7 µM.

Take `O=C1NC(N2CCCC(CO)C2)=N/C1=C\c1ccc(O)cc1` (stereo not given): the TGI in the assay with HOP-92 NSCLC, with T-47D breast, in the assay with TK-10 renal, with UO-31 renal, in the assay on OVCAR-8 ovarian and in the assay on A549 NSCLC was above 100 µM in each case. The TGI in the assay with SK-MEL-5 melanoma, in the assay with PC-3 prostate, in the assay with U251 CNS and in the assay on BT-549 breast was above 100 µM throughout.

`Cc1cc(C)n(CN(Cn2nc(C)cc2C)c2ccc(N(Cn3nc(C)cc3C)Cn3nc(C)cc3C)cc2)n1`: the TGI with HOP-92 NSCLC came out at 62.2 µM; in the assay on T-47D breast, 51.8 µM; in the assay on TK-10 renal, 69.8 µM; in the assay with UO-31 renal, 95.2 µM; with OVCAR-8 ovarian, 77.4 µM; in the assay on A549 NSCLC it was 89.1 µM. For the same compound, the TGI in the assay on SK-MEL-5 melanoma was 30.9 µM; in the assay on PC-3 prostate, 74.6 µM; in the assay with U251 CNS, 91.1 µM; in the assay on BT-549 breast, 39.2 µM.

On to `Cc1ccc(-c2cn3c(nc4ccccc43)c(C)n2)cc1`, for which the TGI is 98.1 µM in the assay on HOP-92 NSCLC; above 30.1 µM in the assay on T-47D breast; above 100 µM with TK-10 renal; above 30.1 µM with UO-31 renal; above 100 µM in the assay with OVCAR-8 ovarian; above 100 µM in the assay with A549 NSCLC. Besides, the TGI was 40.3 µM in the assay with SK-MEL-5 melanoma, above 100 µM with PC-3 prostate, above 87.7 µM in the assay on U251 CNS and above 89.4 µM with BT-549 breast.

As to `COc1cc(C=Nc2ccc(Oc3ccc(Cl)cc3)c(Cl)c2)cc(OC)c1OC`, the TGI in the assay with HOP-92 NSCLC was 39.4 µM; in the assay on T-47D breast, 39.7 µM; with TK-10 renal it was above 100 µM; with UO-31 renal it was 23.2 µM; with OVCAR-8 ovarian, 62.1 µM; with A549 NSCLC it was 44.7 µM. Further, the TGI with SK-MEL-5 melanoma amounted to 34.9 µM; with PC-3 prostate it was 36.2 µM; in the assay with U251 CNS, 40.8 µM; with BT-549 breast, 38 µM.

`CC(C)(C)OC(=O)N1CC(COS(C)(=O)=O)c2ccc(O)cc21` (stereo not given): the TGI in the assay with HOP-92 NSCLC amounted to 5.56 µM; in the assay with T-47D breast, 11.1 µM; in the assay on TK-10 renal, 8.76 µM; in the assay with UO-31 renal it was 5.26 µM; in the assay on OVCAR-8 ovarian it was 4.51 µM; with A549 NSCLC, 10.7 µM. Further, the TGI with SK-MEL-5 melanoma was 2.92 µM; in the assay with PC-3 prostate it was 3.83 µM; with U251 CNS, 9.69 µM; with BT-549 breast, 3.58 µM.

With `Cc1c2cccc-2c(N(C)C)cc2c1[nH]c1ccccc12`, the TGI with HOP-92 NSCLC turned out to be 3.54 µM; with T-47D breast, 5.09 µM; with TK-10 renal, 13.2 µM; in the assay with UO-31 renal, 7.93 µM; in the assay with OVCAR-8 ovarian, 10.3 µM; in the assay with A549 NSCLC it was 18.6 µM. The TGI in the assay on SK-MEL-5 melanoma came to 18.5 µM; with PC-3 prostate, 5.33 µM; in the assay on U251 CNS it was 4.01 µM; in the assay with BT-549 breast it was 8.19 µM.

As to `O=C1c2c(ccc3c2CCCC3)CC12Cc1ccccc1C2`, the TGI is 51.7 µM in the assay with HOP-92 NSCLC; above 100 µM in the assay with T-47D breast; above 100 µM in the assay on TK-10 renal; 68.5 µM in the assay on UO-31 renal; above 100 µM in the assay on OVCAR-8 ovarian; above 92.6 µM in the assay on A549 NSCLC. The TGI with SK-MEL-5 melanoma is 22.3 µM; with PC-3 prostate it was above 100 µM; with U251 CNS, above 100 µM; in the assay with BT-549 breast, above 100 µM.

In the case of `CN(C)/C=C/c1ccnc2c1C(=O)c1ccccc1C2=O`, the TGI was above 100 µM in the assay with HOP-92 NSCLC; above 85 µM in the assay with T-47D breast; above 100 µM with TK-10 renal; 43.6 µM in the assay with UO-31 renal; 59.1 µM in the assay with OVCAR-8 ovarian; above 56.7 µM with A549 NSCLC. The TGI with SK-MEL-5 melanoma is 4.22 µM; in the assay with PC-3 prostate it was 56.7 µM; in the assay with U251 CNS it was 49.7 µM; with BT-549 breast, 14.9 µM.

With `COC(=O)[C@H]1ON2O[C@H](OC3CCCC[C@@H]3c3ccccc3)C[C@@H]3CC[C@H]1[C@@]32C` (stereo not given in full), the TGI in the assay with HOP-92 NSCLC, with T-47D breast, with TK-10 renal, in the assay on UO-31 renal, with OVCAR-8 ovarian and in the assay with A549 NSCLC was above 100 µM each time. Also, the TGI in the assay on SK-MEL-5 melanoma, with PC-3 prostate, in the assay with U251 CNS and in the assay on BT-549 breast was above 100 µM each time.

Regarding `CN(C)CCCN1c2ccc3ccccc3c2Sc2cccc(Cl)c21`, the TGI in the assay with HOP-92 NSCLC turned out to be 9.1 µM; in the assay with T-47D breast, 7.17 µM; in the assay on TK-10 renal it was 5.67 µM; in the assay with UO-31 renal, 12 µM; in the assay on OVCAR-8 ovarian, 18 µM; in the assay with A549 NSCLC, 19 µM. Further, the TGI in the assay with SK-MEL-5 melanoma was found to be 9.59 µM; in the assay with PC-3 prostate, 11.8 µM; with U251 CNS it was 4.72 µM; in the assay with BT-549 breast it was 42.7 µM.

As for `C=C(Cl)C(Cl)(CBr)CCC(Cl)C(C)C` (stereo not given), the TGI is 3.52 µM with HOP-92 NSCLC; 0.411 µM in the assay with T-47D breast; 3.12 µM in the assay with TK-10 renal; 7.4 µM in the assay on UO-31 renal; above 100 µM in the assay on OVCAR-8 ovarian; 27.1 µM in the assay with A549 NSCLC. Moreover, the TGI in the assay with SK-MEL-5 melanoma was 42.8 µM; with PC-3 prostate, 5.8 µM; in the assay with U251 CNS, 1.88 µM; in the assay on BT-549 breast it was 27.9 µM.

The values above are taken from PubChem BioAssay (NCI).
